Source: doi:10.1101/471615v1 (biorxiv, 2018)
pKd: −log10 of the molar value.

Tests used:
Assay in all cases: biochemical
[1] = target: T1, nemo-like kinase, NLK (Homo sapiens, UniProt Q9UBE8)
T1 sequence (Q9UBE8 1-527): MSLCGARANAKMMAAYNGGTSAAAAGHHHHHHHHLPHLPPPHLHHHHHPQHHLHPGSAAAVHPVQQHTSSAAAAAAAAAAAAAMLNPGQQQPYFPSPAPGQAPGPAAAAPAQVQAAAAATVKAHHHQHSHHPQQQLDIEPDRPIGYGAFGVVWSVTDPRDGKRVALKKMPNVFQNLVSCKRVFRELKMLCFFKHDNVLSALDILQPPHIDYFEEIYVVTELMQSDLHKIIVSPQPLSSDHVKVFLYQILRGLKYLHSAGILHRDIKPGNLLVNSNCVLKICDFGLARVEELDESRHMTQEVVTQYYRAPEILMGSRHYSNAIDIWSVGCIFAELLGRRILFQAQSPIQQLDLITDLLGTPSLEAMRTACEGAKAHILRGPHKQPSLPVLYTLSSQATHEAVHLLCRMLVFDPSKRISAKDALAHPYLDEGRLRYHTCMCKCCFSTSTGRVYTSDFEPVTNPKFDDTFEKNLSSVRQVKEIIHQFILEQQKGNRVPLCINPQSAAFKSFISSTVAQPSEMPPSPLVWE

[2] = target: T2, EphA1 (Homo sapiens, UniProt P21709)
T2 sequence (P21709 1-976): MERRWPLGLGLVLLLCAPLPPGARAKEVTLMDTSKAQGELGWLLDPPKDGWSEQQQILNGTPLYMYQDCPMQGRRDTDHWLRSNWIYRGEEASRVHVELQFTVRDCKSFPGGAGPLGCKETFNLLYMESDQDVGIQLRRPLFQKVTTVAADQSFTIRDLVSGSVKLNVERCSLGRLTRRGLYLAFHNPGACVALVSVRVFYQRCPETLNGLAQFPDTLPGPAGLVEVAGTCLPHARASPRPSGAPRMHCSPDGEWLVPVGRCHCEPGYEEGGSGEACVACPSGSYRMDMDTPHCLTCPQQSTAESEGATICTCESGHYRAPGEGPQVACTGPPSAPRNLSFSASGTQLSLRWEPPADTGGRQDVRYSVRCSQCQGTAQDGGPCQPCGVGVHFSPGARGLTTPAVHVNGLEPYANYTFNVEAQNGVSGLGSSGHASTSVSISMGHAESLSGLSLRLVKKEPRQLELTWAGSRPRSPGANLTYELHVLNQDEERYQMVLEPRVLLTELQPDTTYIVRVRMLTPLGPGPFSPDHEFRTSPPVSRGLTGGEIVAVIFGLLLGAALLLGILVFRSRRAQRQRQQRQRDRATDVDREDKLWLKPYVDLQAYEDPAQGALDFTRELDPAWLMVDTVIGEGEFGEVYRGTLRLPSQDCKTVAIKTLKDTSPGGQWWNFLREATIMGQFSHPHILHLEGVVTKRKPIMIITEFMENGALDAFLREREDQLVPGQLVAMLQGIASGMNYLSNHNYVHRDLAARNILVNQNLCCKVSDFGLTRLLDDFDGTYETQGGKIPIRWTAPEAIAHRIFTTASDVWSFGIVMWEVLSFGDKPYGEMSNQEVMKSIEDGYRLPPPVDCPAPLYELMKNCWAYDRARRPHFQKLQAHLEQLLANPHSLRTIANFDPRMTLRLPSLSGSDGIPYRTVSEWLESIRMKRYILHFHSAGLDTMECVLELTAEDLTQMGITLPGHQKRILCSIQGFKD

[3] = target: T3, EphA8 (Homo sapiens, UniProt P29322)
T3 sequence (P29322 1-1005): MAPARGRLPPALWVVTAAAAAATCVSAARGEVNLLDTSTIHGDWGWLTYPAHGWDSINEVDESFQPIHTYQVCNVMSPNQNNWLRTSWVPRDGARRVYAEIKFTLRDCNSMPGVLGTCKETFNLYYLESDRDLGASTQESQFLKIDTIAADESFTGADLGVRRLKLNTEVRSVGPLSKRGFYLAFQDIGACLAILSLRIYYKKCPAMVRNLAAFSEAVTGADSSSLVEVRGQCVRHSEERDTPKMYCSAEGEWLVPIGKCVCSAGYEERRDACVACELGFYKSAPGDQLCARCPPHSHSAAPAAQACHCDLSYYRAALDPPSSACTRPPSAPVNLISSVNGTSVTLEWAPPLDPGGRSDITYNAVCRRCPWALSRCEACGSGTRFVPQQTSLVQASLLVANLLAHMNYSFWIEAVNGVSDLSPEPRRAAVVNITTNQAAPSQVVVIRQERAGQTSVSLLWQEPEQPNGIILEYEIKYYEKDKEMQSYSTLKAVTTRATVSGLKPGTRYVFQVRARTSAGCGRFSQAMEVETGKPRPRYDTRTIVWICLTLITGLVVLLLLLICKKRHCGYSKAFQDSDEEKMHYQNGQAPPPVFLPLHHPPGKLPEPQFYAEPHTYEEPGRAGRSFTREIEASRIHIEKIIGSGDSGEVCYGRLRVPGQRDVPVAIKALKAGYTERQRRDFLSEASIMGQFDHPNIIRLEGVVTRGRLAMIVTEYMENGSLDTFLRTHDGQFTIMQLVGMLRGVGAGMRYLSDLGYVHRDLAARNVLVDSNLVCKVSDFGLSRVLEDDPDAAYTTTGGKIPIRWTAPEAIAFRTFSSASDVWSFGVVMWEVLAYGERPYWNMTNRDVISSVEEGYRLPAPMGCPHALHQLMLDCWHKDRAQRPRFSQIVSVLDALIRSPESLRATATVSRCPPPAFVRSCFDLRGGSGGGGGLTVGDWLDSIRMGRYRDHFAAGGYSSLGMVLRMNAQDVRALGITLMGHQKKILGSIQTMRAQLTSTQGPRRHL

[4] = target: ABL1-non-Phos. (Homo sapiens, UniProt P00519)
Chain of ABL1-non-Phos. (P00519 whole entry): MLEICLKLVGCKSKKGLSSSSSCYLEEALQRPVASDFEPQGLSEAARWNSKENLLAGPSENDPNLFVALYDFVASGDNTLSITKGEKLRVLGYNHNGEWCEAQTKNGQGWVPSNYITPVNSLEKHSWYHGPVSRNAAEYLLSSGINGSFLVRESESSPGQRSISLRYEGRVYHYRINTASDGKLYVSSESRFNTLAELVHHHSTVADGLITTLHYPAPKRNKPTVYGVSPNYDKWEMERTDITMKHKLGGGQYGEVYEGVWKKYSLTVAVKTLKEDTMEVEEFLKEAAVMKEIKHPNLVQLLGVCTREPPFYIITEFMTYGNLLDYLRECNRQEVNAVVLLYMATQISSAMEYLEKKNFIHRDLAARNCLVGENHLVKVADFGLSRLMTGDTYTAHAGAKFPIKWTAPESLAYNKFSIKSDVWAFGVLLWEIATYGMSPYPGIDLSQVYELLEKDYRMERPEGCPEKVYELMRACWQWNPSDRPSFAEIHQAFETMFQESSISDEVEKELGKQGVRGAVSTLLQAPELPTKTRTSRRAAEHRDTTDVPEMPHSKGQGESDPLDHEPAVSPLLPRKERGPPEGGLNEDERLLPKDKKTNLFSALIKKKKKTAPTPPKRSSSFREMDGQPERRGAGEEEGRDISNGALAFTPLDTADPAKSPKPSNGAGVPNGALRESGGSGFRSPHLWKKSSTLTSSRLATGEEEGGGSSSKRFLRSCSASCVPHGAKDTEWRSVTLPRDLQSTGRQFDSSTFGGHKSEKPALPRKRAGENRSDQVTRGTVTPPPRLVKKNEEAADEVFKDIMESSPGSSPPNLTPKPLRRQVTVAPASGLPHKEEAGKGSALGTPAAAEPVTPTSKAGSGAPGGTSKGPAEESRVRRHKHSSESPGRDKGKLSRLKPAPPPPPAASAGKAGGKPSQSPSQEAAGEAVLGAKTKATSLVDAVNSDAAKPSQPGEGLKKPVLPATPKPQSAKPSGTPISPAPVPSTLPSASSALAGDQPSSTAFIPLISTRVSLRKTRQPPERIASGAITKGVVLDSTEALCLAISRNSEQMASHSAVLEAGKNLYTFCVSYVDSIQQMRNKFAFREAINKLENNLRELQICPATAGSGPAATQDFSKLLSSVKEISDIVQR

Measured: pKd

COc1cc(N(C)c2ccnc3ccc(C(F)(F)F)cc23)cc(OC)c1OC [compound 21, negative control (21)]
< 5.00: all assays above
